The target of assay [1] is T1, hA2a (Homo sapiens (Human), UniProt P29274). Nature of the assay: Radioligand binding to hA2a membrane ([3H]-CGS21680). Particulars: [3H]-CGS21680, 90 min at 25° C., read-out: Binding Affinity (IC50 nM) hA2a. As to the method:
(§1) Binding affinity and specificities of the compounds against different subtype of human adenosine receptors (hA1, hA2A, hA2B and hA3) were characterized with cell membrane chromatography binding analysis.
The compounds at different concentrations were incubate with hA2a membrane (from PerkinElmer) and [^3H]-CGS21680 for 90 min at 25° C., meanwhile 100 μL 0.5% PEI solution was added into […]-96 GF/B filter plate for 60 min at 4° C., then […]-96 GF/B filter plate was washed twice with 50 ml wash buffer, the membrane mix was transferred into […]-96 GF/B filter plate, and the filter plate was washed 4 times before incubated at 55° C. for 10 min. At last, […] ULTIMA GOLD was added into each well, and CPM was read by TopCount.
(§2) The empty boxes in the tables below indicate data not available.

For assay [2], the target named is T2, hA1 (Homo sapiens (Human), UniProt P30542). Nature of the assay: Radioligand binding to hA1 membrane ([3H]-DPCPX). Particulars: 50 min at 25° C., read-out: Binding Affinity (IC50 nM) hA1. As for the experimental part:
as §1
The compounds at different concentrations were incubate with hA1 membrane (from PerkinElmer) and [^3H]-8-Cyclopentyl-1,3-dipropylxanthine (DPCPX) for 50 min at 25° C., meanwhile 100 μL 0.5% PEI solution was added into […]-96 GF/B filter plate for 60 min at 4° C., then […]-96 GF/B filter plate was washed twice with 50 ml wash buffer, the membrane mix was transferred into […]-96 GF/B filter plate, and the filter plate was washed 4 times before incubated at 55° C. for 10 min. At last, […] ULTIMA GOLD was added into each well, and CPM was read by TopCount.
as §2

Assay [3] addresses T1, hA2a. As to the kind of experiment: cAMP inhibition assay in hA2a/CHO cells. Type of assay: cell-based. Particulars: adenosine stimulation, read-out: cAMP & FLIPR IC50 (nM) hA2a. The method in brief: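 CHO cells expressing human A2a, human A2b or mouse A2a, 5×10^3 cells/well, pre-incubated with compound 30 min at 37 °C, then stimulated with […] adenosine 30 min at 37 °C. cAMP read after 60 min room-temperature incubation with detection reagent.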

Assay [4] has as its target hA2b (Homo sapiens (Human), UniProt P29275). Nature of the assay: cAMP inhibition assay in hA2b/CHO cells. Type of assay: cell-based. The note with it: adenosine stimulation, read-out: cAMP & FLIPR IC50 (nM) hA2b. As to the method: (§3) hA2a/CHO, hA2b/CHO and mA2a/CHO (Genscript) were plated at 5×10^3 cells/well into 384-well polystyrene plates at the day of experiment. Compounds were pre-incubated with cells for 30 min at 37° C., 5% CO2. Then […] adenosine was added to the cells and incubated for 30 min at 37° C., 5% CO2. Detection reagent (CISBIO) was added and the plates were incubated for 60 min at room temperature. The signal was captured by Envision.

The target in assay [5] is mA2a (Mus musculus (Mouse), UniProt Q60613). As to the kind of experiment: cAMP inhibition assay in mA2a/CHO cells. Particulars: adenosine stimulation, read-out: cAMP & FLIPR IC50 (nM) mA2a. In kind it is cell-based. As for the experimental part: as §3
The target of assay [6] is T2, hA1. As to the kind of experiment: FLIPR inhibition assay in hADORA1/CHO (hA1 expressing) cells. Particulars: hADORA1/CHO cells, FLIPR calcium, adenosine stimulation; read-out: cAMP & FLIPR IC50 (nM) hA1. In kind it is cell-based. The method in brief:
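CHO cells expressing human A1 were plated at 1×10^4 cells/well the day before, then loaded with FLIPR Calcium 5 dye for 60 min at 37 °C, 5% CO2. Compounds were added at several concentrations for 400 s before stimulation with […] adenosine. The calcium signal was recorded by FLIPR.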

Bounds are passed on as bounds.

A word on the IC50: it is the point on the concentration scale where inhibition reaches its midpoint.

T1 sequence (P29274 whole entry): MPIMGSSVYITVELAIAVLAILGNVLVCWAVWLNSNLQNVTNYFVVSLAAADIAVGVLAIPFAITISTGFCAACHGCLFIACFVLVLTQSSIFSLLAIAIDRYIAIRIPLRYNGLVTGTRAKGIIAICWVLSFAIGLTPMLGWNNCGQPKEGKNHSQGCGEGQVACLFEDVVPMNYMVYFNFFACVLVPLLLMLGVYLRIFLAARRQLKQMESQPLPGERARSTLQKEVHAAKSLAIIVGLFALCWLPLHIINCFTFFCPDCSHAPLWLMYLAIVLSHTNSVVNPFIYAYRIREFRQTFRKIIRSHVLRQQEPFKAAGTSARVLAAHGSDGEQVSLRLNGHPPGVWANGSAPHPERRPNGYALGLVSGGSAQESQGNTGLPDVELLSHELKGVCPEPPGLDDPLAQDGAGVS
Chain of mA2a (Q60613 whole entry): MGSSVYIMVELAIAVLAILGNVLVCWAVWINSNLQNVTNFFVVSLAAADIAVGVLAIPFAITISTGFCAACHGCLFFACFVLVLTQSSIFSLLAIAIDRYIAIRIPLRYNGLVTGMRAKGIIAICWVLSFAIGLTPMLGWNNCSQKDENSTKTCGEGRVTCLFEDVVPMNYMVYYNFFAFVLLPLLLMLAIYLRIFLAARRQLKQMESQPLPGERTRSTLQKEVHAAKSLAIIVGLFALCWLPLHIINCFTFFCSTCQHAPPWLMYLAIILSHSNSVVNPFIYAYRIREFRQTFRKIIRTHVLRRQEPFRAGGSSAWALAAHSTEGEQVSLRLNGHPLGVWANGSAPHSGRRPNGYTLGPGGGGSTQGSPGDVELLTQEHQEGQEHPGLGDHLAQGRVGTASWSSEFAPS
Chain of hA2b (P29275 whole entry): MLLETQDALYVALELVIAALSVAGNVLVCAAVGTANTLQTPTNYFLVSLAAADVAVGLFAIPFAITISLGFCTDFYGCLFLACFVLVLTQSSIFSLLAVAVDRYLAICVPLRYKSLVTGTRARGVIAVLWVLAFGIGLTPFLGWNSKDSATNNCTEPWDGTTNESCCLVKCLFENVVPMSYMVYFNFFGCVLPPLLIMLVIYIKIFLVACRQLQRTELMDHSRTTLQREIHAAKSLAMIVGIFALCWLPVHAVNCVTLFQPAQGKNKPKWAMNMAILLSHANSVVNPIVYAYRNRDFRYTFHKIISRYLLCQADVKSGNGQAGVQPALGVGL
T2 sequence (P30542 whole entry): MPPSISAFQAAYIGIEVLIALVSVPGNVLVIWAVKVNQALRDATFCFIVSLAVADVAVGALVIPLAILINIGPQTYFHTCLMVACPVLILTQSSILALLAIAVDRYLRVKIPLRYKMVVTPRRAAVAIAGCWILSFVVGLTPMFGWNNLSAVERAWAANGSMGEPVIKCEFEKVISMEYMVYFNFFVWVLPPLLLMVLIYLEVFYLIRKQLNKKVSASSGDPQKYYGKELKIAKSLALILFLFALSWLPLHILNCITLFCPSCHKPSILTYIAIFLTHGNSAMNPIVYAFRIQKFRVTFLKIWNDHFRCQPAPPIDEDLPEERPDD

As for `Cn1cc(-c2c(-c3ncco3)nc(N)n3nc(Cc4c(F)cccc4F)nc23)ccc1=O` [Example 22, 5-(5-amino-2-(2,6-difluorobenzyl)-7-(oxazol-2-yl)-[1,2,4]triazolo[1,5-c]pyrimidin-8-yl)-1-methylpyridin-2(1H)-one], the IC50 in assay [1] was 12 nM; in assay [2], 6.8 nM; in assay [3], 8.2 nM; in assay [4], 168 nM; in assay [5] it was 12 nM; in assay [6], 25 nM.

As to `Nc1nc(-c2ccc(F)cc2)c(-c2ccc(=O)n(CCO)c2)c2nc(Cc3ncccc3F)nn12` [Example 95, 5-(5-amino-7-(4-fluorophenyl)-2-((3-fluoropyridin-2-yl)methyl)-[1,2,4]triazolo[1,5-c]pyrimidin-8-yl)-l-(2-hydroxyethyl)pyridin-2(1H)-one], the IC50 in assay [3] is 3.7 nM; in assay [4], 241 nM; in assay [5] it was 8.9 nM; in assay [6] it was 27 nM.

In the case of `Nc1nc(-c2ccc(F)cc2)c(-c2ccc3nccnc3c2)c2nc(Cc3ncccc3F)nn12` [Example 96, 7-(4-fluorophenyl)-2-((3-fluoropyridin-2-yl)methyl)-8-(quinoxalin-6-yl)-[l,2,4]triazolo[l,5-c] pyrimidin-5-amine], the IC50 in assay [3] turned out to be 25 nM; in assay [4], 3800 nM; in assay [5], 123 nM; in assay [6], 681 nM.

With `Cn1cc(-c2c(-c3ccc4c(ccn4C)c3)nc(N)n3nc(Cc4ncccc4F)nc23)ccc1=O` [Example 97, 5-(5-amino-2-((3-fluoropyridin-2-yl)methyl)-7-(1-methyl-1H-indol-5-yl)-[1,2,4]triazolo[1,5-c]pyrimidin-8-yl)-1-methylpyridin-2(1H)-one], the 50% inhibitory concentration (IC50) came out at 47 nM in assay [3], 1720 nM in assay [4], 120 nM in assay [5] and 19 nM in assay [6].

Regarding `COc1ccccc1-c1nc(N)n2nc(Cc3ncccc3F)nc2c1-c1ccc(=O)n(C)c1` [Example 98, 5-(5-amino-2-((3-fluoropyridin-2-yl)methyl)-7-(2-methoxyphenyl)-[1,2,4]triazolo[1,5-c]pyrimidin-8-yl)-1-methylpyridin-2(1H)-one], the concentration for half-maximal inhibition (IC50) in assay [3] is 88 nM; in assay [4], 1540 nM; in assay [5], 224 nM; in assay [6], 333 nM.

Turning to `Cc1cnc2ccc(-c3c(-c4ncco4)nc(N)n4nc(Cc5ncccc5F)nc34)cn12` [Example 99, 2-((3-fluoropyridin-2-yl)methyl)-8-(3-methylimidazo[l,2-a]pyridin-6-yl)-7-(oxazol-2-yl)-[l,2,4] triazolo[l,5-c]pyrimidin-5-amine], the IC50 in assay [3] stood at 0.5 nM; in assay [4] it was 21 nM; in assay [5] it was 0.8 nM; in assay [6], 3.5 nM.

Consider `Cc1cnc2ccc(-c3c(N(C)C)nc(N)n4nc(Cc5ncccc5F)nc34)cn12` [Example 100, 2-[(3-fluoropyridin-2-yl)methyl]-N7,N7-dimethyl-8-[3-methylimidazo[1,2-a]pyridin-6-yl]-[1,2,4]triazolo[1,5-c]pyrimidine-5,7-diamine], for which the concentration for half-maximal inhibition (IC50) was found to be 1.2 nM in assay [3], 38 nM in assay [4], 3.5 nM in assay [5] and 11.8 nM in assay [6].

As for `Cc1cnc2ccc(-c3c(N4CCCC4)nc(N)n4nc(Cc5ncccc5F)nc34)cn12` [Example 101, 2-((3*fluoropyridin-2-yl)methyl)-8-(3-methylimidazo[1,2-a]pyridin-6-yl)-7-(pyrrolidin-1-yl)-[1,2, 4]triazolo[l,5-c]pyrimidin-5-amine], the IC50 in assay [3] came out at 8.2 nM; in assay [4], 203 nM; in assay [5] it was 58.1 nM; in assay [6], 6.6 nM.

Regarding `Cc1cnc2ccc(-c3c(N4CCOCC4)nc(N)n4nc(Cc5ncccc5F)nc34)cn12` [Example 102, 2-((3-fluoropyridin-2-yl)methyl)-8-(3-methylimidazo[l,2-a]pyridin-6-yl)-7-morpholino-[l,2,4]tri azolo[1,5-c]pyrimidin-5-amine], the IC50 is 2.6 nM in assay [3], 121 nM in assay [4], 11.2 nM in assay [5] and 27.2 nM in assay [6].

Consider `Cc1cnc2ccc(-c3c(N4CCC5(COC5)C4)nc(N)n4nc(Cc5ncccc5F)nc34)cn12` [Example 110, 2-((3-fluoropyridin-2-yl)methyl)-8-(3-methylimidazo[1,2-a]pyridin-6-yl)-7-(2-oxa-6-azaspiro[3.4]octan-6-yl)-[l,2,4]triazolo[l,5-c]pyrimidin-5-amine], for which the IC50 is 795 nM in assay [3], greater than 10000 nM in assay [4], 7190 nM in assay [5] and 85.9 nM in assay [6].

In the case of `COCCc1nc2c(-c3ccc4ncc(C)n4c3)c(-c3ccc(F)cc3)nc(N)n2n1` [Example 114, 7-(4-fluorophenyl)-2-(2-methoxyethyl)-8-(3-methylimidazo[1,2-a]pyridin-6-yl)-[1,2,4]triazolo[1,5-c]pyrimidin-5-amine], the half-maximal inhibitory concentration (IC50) in assay [3] was found to be 0.2 nM; in assay [4] it was 40.9 nM; in assay [5], 0.4 nM; in assay [6], 5.7 nM.

On to `Cc1cnc2ccc(-c3c(-n4ccc(F)n4)nc(N)n4nc(Cc5ncccc5F)nc34)cn12` [Example 116, 7-(3-fluoro-1H-pyrazol-1-yl)-2-((3-fluoropyridin-2-yl)methyl)-8-(3-methylimidazo[l,2-a]pyridin-6-yl)-[l,2,4]triazolo[l,5-c]pyrimidin-5-amine], for which the IC50 in assay [3] is 0.2 nM; in assay [4], 12.2 nM; in assay [5] it was 0.2 nM; in assay [6] it was 7.9 nM.

On to `Cc1cnc2ccc(-c3c(-n4cc(F)cn4)nc(N)n4nc(Cc5ncccc5F)nc34)cn12` [Example 117, 7-(4-fluoro-1H-pyrazol-1-yl)-2-((3-fluoropyridin-2-yl)methyl)-8-(3-methylimidazo[l,2-a]pyridin-6-yl)-[1,2,4]triazolo[1,5-c]pyrimidin-5-amine], for which the half-inhibitory concentration (IC50) in assay [3] was 0.2 nM; in assay [4], 16.4 nM; in assay [5], 0.5 nM; in assay [6], 9.7 nM.

`Cc1cnc2ccc(-c3c(-c4ccc(F)cc4)nc(N)n4nc(CCN(C)C)nc34)cn12` [Example 120, 2-(2-(dimethylamino)ethyl)-7-(4-fluorophenyl)-8-(3-methylimidazo[l,2-a]pyridin-6-yl)-[l,2,4]tria zolo[1,5-c]pyrimidin-5-amine]: the IC50 in assay [3] stood at 0.6 nM; in assay [4], 146 nM; in assay [5] it was 9.5 nM; in assay [6], 66.7 nM.

Take `Cc1cnc2ccc(-c3c(-c4ccc(F)cc4)nc(N)n4nc(C[C@@H]5CCCN5C)nc34)cn12` [Example 122, (S)-7-(4-fluorophenyl)-8-(3-methylimidazo[1,2-a]pyridin-6-yl)-2-((l-methylpyrrolidin-2-yl)methyl)-[1,2,4]triazolo[1,5-c]pyrimidin-5-amine]: the IC50 amounted to 0.3 nM in assay [3], 93.5 nM in assay [4], 2.6 nM in assay [5] and 67.7 nM in assay [6].

In the case of `Cc1cnc2ccc(-c3c(N4CCCC4)nc(N)n4nc(Cc5c(F)cccc5F)nc34)cn12` [Example 123, 2-(2,6-difluorobenzyl)-8-(3-methylimidazo[l,2-a]pyridin-6-yl)-7-(pyrrolidin-1-yl)-[1,2,4]triazolo [1,5-c]pyrimidin-5-amine], the IC50 in assay [3] turned out to be 0.4 nM; in assay [4], 80.5 nM; in assay [5], 16.5 nM; in assay [6] it was 42.4 nM.

For the molecule `Cc1cnc2ccc(-c3c(N4CCC4)nc(N)n4nc(Cc5c(F)cccc5F)nc34)cn12` [Example 124, 7-(azetidin-l-yl)-2-(2,6-difluorobenzyl)-8-(3-methylimidazo[1,2-a]pyridin-6-yl)-[1,2,4]triazolo [1,5-c]pyrimidin-5-amine], the IC50 in assay [3] was determined as 0.1 nM; in assay [4] it was 23.3 nM; in assay [5], 3.9 nM; in assay [6] it was 16 nM.

The record behind these values is US10858365B2, “Triazolo-pyrimidine compounds and uses thereof” (Dizal (Jiangsu) Pharmaceutical Co., Ltd., priority 2018, dated 2020).
